{
  "source": "ChEMBL document CHEMBL4033613",
  "about": "“Rearranged Terpenoids from the Marine Sponge Darwinella cf. oxeata and Its Predator, the Nudibranch Felimida grahami” (J Nat Prod, 2017)",
  "key": {"Trypanosoma cruzi [1]": {"tested_on": "Trypanosoma cruzi", "experiment": "Antitrypanosomal activity against Trypanosoma cruzi trypomastigotes", "assay_type": "functional"}, "Trypanosoma cruzi [2]": {"tested_on": "Trypanosoma cruzi", "experiment": "Antitrypanosomal activity against Trypanosoma cruzi intracellular amastigotes", "assay_type": "functional, cell-based"}, "[3]": {"experiment": "Cytotoxicity against mammalian NCTC cells", "assay_type": "functional", "conditions": "Mammalia; call rule not given here"}, "[4]": {"conditions": "Trypanosoma cruzi, read-out: IC50"}},
  "data": [
    {"smiles": "C[C@@H](C(=O)O)c1c([C@@]2(C)CCCC(C)(C)C2)ccc2c1CN(CC(=O)O)C2=O", "values": [
      {"measurement": "IC50", "setting": "Trypanosoma cruzi [1]", "result": "Not Active"},
      {"measurement": "IC50", "setting": "Trypanosoma cruzi [2]", "result": "Not Active"}
    ]},
    {"smiles": "C[C@@H](C(=O)O)c1c([C@@]2(C)CCCC(C)(C)C2)ccc2c1CN(C)C2=O", "values": [
      {"measurement": "IC50", "setting": "Trypanosoma cruzi [1]", "result": "Not Active"},
      {"measurement": "IC50", "setting": "Trypanosoma cruzi [2]", "result": "Not Active"}
    ]},
    {"smiles": "COC(=O)[C@H](C)c1c([C@@]2(C)CCCC(C)(C)C2)ccc2c1C(=O)OC2", "values": [
      {"measurement": "IC50", "setting": "Trypanosoma cruzi [1]; [4]", "result": 29, "unit": "µM"},
      {"measurement": "IC50", "setting": "Trypanosoma cruzi [2]; [4]", "result": 20, "unit": "µM"},
      {"measurement": "CC50", "setting": "[3]", "result": 54, "unit": "µM"}
    ]}
  ]
}
